ChEMBL document CHEMBL3885881, “DrugMatrix”

Organism: Rattus norvegicus
Assay: DrugMatrix - Regimen: Daily Repeat
Assay type: toxicity, organism-based, Sprague-Dawley
Parameters: regimen Daily Repeat, gender Male, age 6-8 weeks
Settings: in vivo, sc, route subcutaneous, […]; for SODIUM / TOTAL BILIRUBIN / TOTAL PROTEIN / URIC ACID / ALANINE AMINOTRANSFERASE / ALBUMIN / ALKALINE PHOSPHATASE / ASPARTATE AMINOTRANSFERASE / BLOOD UREA NITROGEN / CARBON DIOXIDE / CHLORIDE / CHOLESTEROL / CREATINE PHOSPHOKINASE / CREATININE / GLUCOSE / LACTATE DEHYDROGENASE / LIPASE / PHOSPHORUS / POTASSIUM: tissue Plasma; for ABSOLUTE BASOPHIL / ABSOLUTE EOSINOPHIL / ABSOLUTE LYMPHOCYTE / ABSOLUTE MONOCYTE / ABSOLUTE SEGMENTED NEUTROPHIL / BASOPHIL / EOSINOPHIL / ERYTHROCYTE COUNT / HEMATOCRIT / HEMOGLOBIN / LEUKOCYTE COUNT / LYMPHOCYTE / MEAN CORPUSCULAR HEMOGLOBIN / MEAN CORPUSCULAR HEMOGLOBIN CONCENTRATION / MEAN CORPUSCULAR VOLUME / MONOCYTE / NEUTROPHIL / NUCLEATED RED BLOOD CELLS / PLATELET COUNT: tissue Blood
[1] = 2 mg/kg, 120 h, dose level M2, time 5 day
[2] = 25 mg/kg, 72 h, dose level High, time 3 day
[3] = 25 mg/kg, 120 h, dose level High, time 5 day
[4] = 72 h, dose 0.25 mg/Kg, dose level M1, time 3 day
[5] = 120 h, dose 0.25 mg/Kg, dose level M1, time 5 day

C[C@]12CC[C@@H]3c4ccc(OC(=O)c5ccccc5)cc4CC[C@H]3[C@@H]1CC[C@@H]2O [ESTRADIOL BENZOATE]
SODIUM [1]: 141.87 MEQ/L
TOTAL BILIRUBIN [1]: 0.13 mg/dL
TOTAL PROTEIN [1]: 5.93 G/DL
URIC ACID [1]: 2.07 mg/dL
ABSOLUTE BASOPHIL [2]: 0 CELLS/uL
ABSOLUTE EOSINOPHIL [2]: 0 CELLS/uL
ABSOLUTE LYMPHOCYTE [2]: 7876 CELLS/uL
ABSOLUTE MONOCYTE [2]: 263 CELLS/uL
ABSOLUTE SEGMENTED NEUTROPHIL [2]: 1061 CELLS/uL
BASOPHIL [2]: 0%
EOSINOPHIL [2]: 0%
ERYTHROCYTE COUNT [2]: 5.97 x10E6/uL
HEMATOCRIT [2]: 37%
HEMOGLOBIN [2]: 13.8 G/DL
LEUKOCYTE COUNT [2]: 9.2 x10E3/uL
LYMPHOCYTE [2]: 86%
MEAN CORPUSCULAR HEMOGLOBIN [2]: 23.2 pg
MEAN CORPUSCULAR HEMOGLOBIN CONCENTRATION [2]: 37.33 G/DL
MEAN CORPUSCULAR VOLUME [2]: 62.1 fL
MONOCYTE [2]: 2.67%
NEUTROPHIL [2]: 11.33%
NUCLEATED RED BLOOD CELLS [2]: 0 /100WBC
PLATELET COUNT [2]: 1341 x10E3/uL
ALANINE AMINOTRANSFERASE [2]: 32.33 u/L
ALBUMIN [2]: 4.13 G/DL
ALKALINE PHOSPHATASE [2]: 479.33 u/L
ASPARTATE AMINOTRANSFERASE [2]: 66.67 u/L
BLOOD UREA NITROGEN [2]: 10.33 mg/dL
CARBON DIOXIDE [2]: 29 mmol/L
CHLORIDE [2]: 101.33 MEQ/L
CHOLESTEROL [2]: 26.67 mg/dL
CREATINE PHOSPHOKINASE [2]: 407.67 u/L
CREATININE [2]: 0.16 mg/dL
GLUCOSE [2]: 188.67 mg/dL
LACTATE DEHYDROGENASE [2]: 154.67 u/L
LIPASE [2]: 7.33 u/L
PHOSPHORUS [2]: 11.1 mg/dL
POTASSIUM [2]: 5.86 MEQ/L
SODIUM [2]: 141.4 MEQ/L
TOTAL BILIRUBIN [2]: 0.1 mg/dL
TOTAL PROTEIN [2]: 5.73 G/DL
URIC ACID [2]: 2 mg/dL
ABSOLUTE BASOPHIL [3]: 0 CELLS/uL
ABSOLUTE EOSINOPHIL [3]: 23.33 CELLS/uL
ABSOLUTE LYMPHOCYTE [3]: 7006.67 CELLS/uL
ABSOLUTE MONOCYTE [3]: 182 CELLS/uL
ABSOLUTE SEGMENTED NEUTROPHIL [3]: 921.33 CELLS/uL
BASOPHIL [3]: 0%
EOSINOPHIL [3]: 0.33%
ERYTHROCYTE COUNT [3]: 5.89 x10E6/uL
HEMATOCRIT [3]: 35%
HEMOGLOBIN [3]: 13.6 G/DL
LEUKOCYTE COUNT [3]: 8.13 x10E3/uL
LYMPHOCYTE [3]: 86.33%
MEAN CORPUSCULAR HEMOGLOBIN [3]: 23.13 pg
MEAN CORPUSCULAR HEMOGLOBIN CONCENTRATION [3]: 38.9 G/DL
MEAN CORPUSCULAR VOLUME [3]: 59.43 fL
MONOCYTE [3]: 2.67%
NEUTROPHIL [3]: 10.67%
NUCLEATED RED BLOOD CELLS [3]: 0 /100WBC
PLATELET COUNT [3]: 988.67 x10E3/uL
ALANINE AMINOTRANSFERASE [3]: 53 u/L
ALBUMIN [3]: 5.07 G/DL
ALKALINE PHOSPHATASE [3]: 360 u/L
ASPARTATE AMINOTRANSFERASE [3]: 106.33 u/L
BLOOD UREA NITROGEN [3]: 14 mg/dL
CARBON DIOXIDE [3]: 27.33 mmol/L
CHLORIDE [3]: 98.67 MEQ/L
CHOLESTEROL [3]: 32.67 mg/dL
CREATINE PHOSPHOKINASE [3]: 366.33 u/L
CREATININE [3]: 0.19 mg/dL
GLUCOSE [3]: 130.67 mg/dL
LACTATE DEHYDROGENASE [3]: 223.33 u/L
LIPASE [3]: 7.67 u/L
PHOSPHORUS [3]: 11.37 mg/dL
POTASSIUM [3]: 5.61 MEQ/L
SODIUM [3]: 143.3 MEQ/L
TOTAL BILIRUBIN [3]: 0.1 mg/dL
TOTAL PROTEIN [3]: 7.6 G/DL
URIC ACID [3]: 2.1 mg/dL
ABSOLUTE BASOPHIL [4]: 0 CELLS/uL
ABSOLUTE EOSINOPHIL [4]: 0 CELLS/uL
ABSOLUTE LYMPHOCYTE [4]: 8002.33 CELLS/uL
ABSOLUTE MONOCYTE [4]: 146.33 CELLS/uL
ABSOLUTE SEGMENTED NEUTROPHIL [4]: 218 CELLS/uL
BASOPHIL [4]: 0%
EOSINOPHIL [4]: 0%
ERYTHROCYTE COUNT [4]: 6.05 x10E6/uL
HEMATOCRIT [4]: 38.6%
HEMOGLOBIN [4]: 15.03 G/DL
LEUKOCYTE COUNT [4]: 8.37 x10E3/uL
LYMPHOCYTE [4]: 95.67%
MEAN CORPUSCULAR HEMOGLOBIN [4]: 24.83 pg
MEAN CORPUSCULAR HEMOGLOBIN CONCENTRATION [4]: 39.03 G/DL
MEAN CORPUSCULAR VOLUME [4]: 63.73 fL
MONOCYTE [4]: 1.67%
NEUTROPHIL [4]: 2.67%
NUCLEATED RED BLOOD CELLS [4]: 0 /100WBC
PLATELET COUNT [4]: 1109.67 x10E3/uL
ALANINE AMINOTRANSFERASE [4]: 61.67 u/L
ALBUMIN [4]: 4.2 G/DL
ALKALINE PHOSPHATASE [4]: 323.67 u/L
ASPARTATE AMINOTRANSFERASE [4]: 81.33 u/L
BLOOD UREA NITROGEN [4]: 11.33 mg/dL
CARBON DIOXIDE [4]: 26.33 mmol/L
CHOLESTEROL [4]: 75.67 mg/dL
CREATINE PHOSPHOKINASE [4]: 295 u/L
CREATININE [4]: 0.23 mg/dL
GLUCOSE [4]: 126 mg/dL
LACTATE DEHYDROGENASE [4]: 285.67 u/L
LIPASE [4]: 12.33 u/L
PHOSPHORUS [4]: 10.4 mg/dL
TOTAL BILIRUBIN [4]: 0.1 mg/dL
TOTAL PROTEIN [4]: 6.03 G/DL
URIC ACID [4]: 0.43 mg/dL
ABSOLUTE BASOPHIL [5]: 0 CELLS/uL
ABSOLUTE EOSINOPHIL [5]: 45.33 CELLS/uL
ABSOLUTE LYMPHOCYTE [5]: 12282.67 CELLS/uL
ABSOLUTE MONOCYTE [5]: 135 CELLS/uL
ABSOLUTE SEGMENTED NEUTROPHIL [5]: 937 CELLS/uL
BASOPHIL [5]: 0%
EOSINOPHIL [5]: 0.33%
ERYTHROCYTE COUNT [5]: 5.99 x10E6/uL
HEMATOCRIT [5]: 37.83%
HEMOGLOBIN [5]: 14.7 G/DL
LEUKOCYTE COUNT [5]: 13.4 x10E3/uL
LYMPHOCYTE [5]: 91.67%
MEAN CORPUSCULAR HEMOGLOBIN [5]: 24.53 pg
MEAN CORPUSCULAR HEMOGLOBIN CONCENTRATION [5]: 38.87 G/DL
MEAN CORPUSCULAR VOLUME [5]: 63.13 fL
MONOCYTE [5]: 1%
NEUTROPHIL [5]: 7%
NUCLEATED RED BLOOD CELLS [5]: 0 /100WBC
PLATELET COUNT [5]: 1305.33 x10E3/uL
ALANINE AMINOTRANSFERASE [5]: 47.67 u/L
ALBUMIN [5]: 4 G/DL
ALKALINE PHOSPHATASE [5]: 486.33 u/L
ASPARTATE AMINOTRANSFERASE [5]: 78.33 u/L
BLOOD UREA NITROGEN [5]: 15.33 mg/dL
CARBON DIOXIDE [5]: 22.67 mmol/L
CHLORIDE [5]: 104.33 MEQ/L
CHOLESTEROL [5]: 33 mg/dL
CREATINE PHOSPHOKINASE [5]: 654 u/L
CREATININE [5]: 0.27 mg/dL
GLUCOSE [5]: 190 mg/dL
LACTATE DEHYDROGENASE [5]: 308 u/L
LIPASE [5]: 9 u/L
PHOSPHORUS [5]: 12.63 mg/dL
POTASSIUM [5]: 4.9 MEQ/L
SODIUM [5]: 143.3 MEQ/L
TOTAL BILIRUBIN [5]: 0.1 mg/dL
TOTAL PROTEIN [5]: 5.73 G/DL
URIC ACID [5]: 1.6 mg/dL
